Experimental data from US11649242B2, “Pyrrolopyrrole compositions as pyruvate kinase (PKR) activators” (FORMA Therapeutics, Inc., priority 2017, dated 2023).

Columns and labels:
Type in all cases: biochemical
PKR(wt) = PKR(wt) (Homo sapiens, UniProt P30613); experiment: Luminescence Assay Protocol (Kinase Glo Plus), PKR(Wt/without FBP); conditions: without FBP; for AC50: gmean, read-out: G - AC50 LUM KGP woFBP AC50 μM gmean; for H - AC50 LUM KGP woFBP MAX % FOLD mean / Emax: highest % fold increase at any concentration; for activation at 1.54 µM: read-out: I - AC50 LUM KGP woFBP % Fold @ 1.54 μM mean; for Emax: read-out: H - AC50 LUM KGP woFBP MAX % FOLD mean
PKR(wt), sequence (P30613 whole entry): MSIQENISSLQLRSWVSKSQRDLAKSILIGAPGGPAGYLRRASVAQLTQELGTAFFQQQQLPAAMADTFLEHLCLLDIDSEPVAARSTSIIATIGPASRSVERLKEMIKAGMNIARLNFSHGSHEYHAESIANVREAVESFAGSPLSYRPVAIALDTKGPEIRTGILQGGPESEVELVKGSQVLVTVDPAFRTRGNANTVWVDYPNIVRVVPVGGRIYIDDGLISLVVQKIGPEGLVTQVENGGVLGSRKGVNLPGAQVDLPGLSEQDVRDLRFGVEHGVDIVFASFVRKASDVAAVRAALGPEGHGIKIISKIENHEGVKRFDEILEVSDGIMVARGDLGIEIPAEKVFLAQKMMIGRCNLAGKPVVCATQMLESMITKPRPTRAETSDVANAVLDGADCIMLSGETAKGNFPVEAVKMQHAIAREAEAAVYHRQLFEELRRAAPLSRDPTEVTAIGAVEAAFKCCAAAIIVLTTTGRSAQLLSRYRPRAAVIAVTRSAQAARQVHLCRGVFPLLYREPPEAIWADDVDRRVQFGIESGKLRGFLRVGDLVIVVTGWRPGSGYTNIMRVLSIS
Procedure, shortened: (§1)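 Enzyme (wt 0.8 nM, R510Q 0.8 nM, G332S 10 nM) was preincubated 30 min at RT with compound and 100 μM PEP in Tris/KCl/MgCl2 buffer, then started with 100 μM ADP, plus 30 μM FBP for G332S. Luminescence was read after 45 min at RT. AC50 came from a four-parameter fit of % fold over DMSO across 42.5 μM–2.2 nM.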

PKR(R510Q) = PKR(R510Q) (Homo sapiens, UniProt P30613, R510Q); experiment: Luminescence Assay Protocol (Kinase Glo Plus), PKR(R510Q/without FBP); conditions: PKRR510Q, without FBP; for AC50: gmean, read-out: D - AC50 LUM KGP woFBP AC50 μM gmean; for E - AC50 LUM KGP woFBP MAX % FOLD mean / Emax: highest % fold increase at any concentration; for activation at 1.54 µM: read-out: F - AC50 LUM KGP woFBP % Fold @ 1.54 μM mean; for Emax: read-out: E - AC50 LUM KGP woFBP MAX % FOLD mean
PKR(R510Q), sequence (P30613 whole entry R510Q): as the sequence (P30613 whole entry) above, with R510Q counted along it
Procedure, shortened: as §1

PKR(G332S) = PKR(G332S) (Homo sapiens, UniProt P30613, G332S); experiment: Luminescence Assay Protocol (Kinase Glo Plus), PKR(G332S/with FBP); conditions: PKRG332S, with FBP; for activation at 1.54 µM: compound 1.54 μM, read-out: C - AC50 LUM KGP FBP % Fold @ 1.54 μM mean; for AC50: gmean, read-out: A - AC50 LUM KGP FBP AC50 μM gmean; for Emax: highest % fold increase at any concentration, read-out: B - AC50 LUM KGP FBP MAX % FOLD mean
PKR(G332S), sequence (P30613 whole entry G332S): as the sequence (P30613 whole entry) above, with G332S counted along it
Procedure, shortened: as §1

Compound	I - AC50 LUM KGP woFBP % Fold @ 1.54 μM mean (PKR(wt); compound 1.54 μM)	AC50 (PKR(wt)) [µM]	H - AC50 LUM KGP woFBP MAX % FOLD mean (PKR(wt))	F - AC50 LUM KGP woFBP % Fold @ 1.54 μM mean (PKR(R510Q); compound 1.54 μM)	AC50 (PKR(R510Q)) [µM]	E - AC50 LUM KGP woFBP MAX % FOLD mean (PKR(R510Q))	activation at 1.54 µM (PKR(G332S)) [%]	AC50 (PKR(G332S)) [µM]	Emax (PKR(G332S)) [%]	activation at 1.54 µM (PKR(wt); compound 1.54 μM) [%]	Emax (PKR(wt)) [%]	activation at 1.54 µM (PKR(R510Q); compound 1.54 μM) [%]	Emax (PKR(R510Q)) [%]
O=C(C(CO)c1ccccn1)N1CC2=C(C1)CN(S(=O)(=O)c1cnc3c(c1)OCCO3)C2 (single isomer, unassigned) [Example 3, (R or S)-1-(5-((2,3-dihydro-[1,4]dioxino[2,3-b]pyridin-7-yl)sulfonyl)-3,4,5,6-tetrahydropyrrolo[3,4-c]pyrrol-2(1H)-yl)-3-hydroxy-2-(pyridin-2-yl)propan-1-one]	++ (>75% and ≤250% (++))	≤ 0.1	++ (>75% and ≤250% (++))	++ (>75% and ≤250% (++))	0.1 to 1	+++ (>250% and ≤500% (+++))	75 to 250	1 to 40	75 to 250				
O=C([C@@H](CO)c1ccccc1)N1CC2=C(C1)CN(S(=O)(=O)c1ccc3ncsc3c1)C2 [Example 30, (R)-1-(5-(benzo[d]thiazol-6-ylsulfonyl)-3,4,5,6-tetrahydropyrrolo[3,4-c]pyrrol-2(1H)-yl)-3-hydroxy-2-phenylpropan-1-one]		0.1 to 1			0.1 to 1		75 to 250	0.1 to 1	75 to 250	250 to 500	250 to 500	250 to 500	250 to 500
O=C(C(CO)c1ccccc1)N1CC2=C(C1)CN(S(=O)(=O)c1ccc3ncsc3c1)C2 (stereo not drawn) [Example 48, 1-(5-(benzo[d]thiazol-6-ylsulfonyl)-3,4,5,6-tetrahydropyrrolo[3,4-c]pyrrol-2(1H)-yl)-3-hydroxy-2-phenylpropan-1-one]		≤ 0.1			≤ 0.1		75 to 250	≤ 0.1	75 to 250	250 to 500	250 to 500	250 to 500	250 to 500

The remaining lines, values ahead:

I - AC50 LUM KGP woFBP % Fold @ 1.54 μM mean (PKR(wt); compound 1.54 μM)	AC50 (PKR(wt)) [µM]	H - AC50 LUM KGP woFBP MAX % FOLD mean (PKR(wt))	F - AC50 LUM KGP woFBP % Fold @ 1.54 μM mean (PKR(R510Q); compound 1.54 μM)	AC50 (PKR(R510Q)) [µM]	E - AC50 LUM KGP woFBP MAX % FOLD mean (PKR(R510Q))	activation at 1.54 µM (PKR(G332S)) [%]	AC50 (PKR(G332S)) [µM]	Emax (PKR(G332S)) [%]	activation at 1.54 µM (PKR(wt); compound 1.54 μM) [%]	Emax (PKR(wt)) [%]	activation at 1.54 µM (PKR(R510Q); compound 1.54 μM) [%]	Emax (PKR(R510Q)) [%]	Compound
	0.1 to 1			1 to 40		75 to 250	0.1 to 1	75 to 250	75 to 250	250 to 500	75 to 250	250 to 500	O=C([C@H]1CCOC1)N1CC2=C(C1)CN(S(=O)(=O)c1ccc(OC(F)F)cc1)C2 [Example 16, (S)-(5-((4-(difluoromethoxy)phenyl)sulfonyl)-3,4,5,6-tetrahydropyrrolo[3,4-c]pyrrol-2(1H)-yl)(tetrahydrofuran-3-yl)methanone]
	0.1 to 1			1 to 40		75 to 250	> 40	75 to 250	75 to 250	75 to 250	75 to 250	250 to 500	CN1CCOc2ccc(S(=O)(=O)N3CC4=C(CN(C(=O)C5CCOC5)C4)C3)cc21 (stereo not drawn) [Example 47, (5-((4-methyl-3,4-dihydro-2H-benzo[b][1,4]oxazin-6-yl)sulfonyl)-3,4,5,6-tetrahydropyrrolo[3,4-c]pyrrol-2(1H)-yl)(tetrahydrofuran-3-yl)methanone]
	≤ 0.1			≤ 0.1		75 to 250	≤ 0.1	75 to 250	250 to 500	250 to 500	250 to 500	250 to 500	O=C([C@H](CO)c1ccccc1)N1CC2=C(C1)CN(S(=O)(=O)c1ccc(OC(F)F)cc1)C2 [Example 31, (S)-1-(5-((4-(difluoromethoxy)phenyl)sulfonyl)-3,4,5,6-tetrahydropyrrolo[3,4-c]pyrrol-2(1H)-yl)-3-hydroxy-2-phenylpropan-1-one]
	1 to 40	++ (>75% and ≤250% (++))		> 40	++ (>75% and ≤250% (++))	75 to 250	1 to 40	75 to 250	75 to 250		75 to 250		O=C(C1CCCOC1)N1CC2=C(C1)CN(S(=O)(=O)c1ccccn1)C2 (single isomer, unassigned) [Example 44, (R or S)-(5-(pyridin-2-ylsulfonyl)-3,4,5,6-tetrahydropyrrolo[3,4-c]pyrrol-2(1H)-yl)(tetrahydro-2H-pyran-3-yl)methanone]
